Experimental data from patent US20240228488A1 (TAKEDA PHARMACEUTICAL COMPANY LIMITED, priority 2021, published 2024).
pEC50: −log10 of the molar value.

biological target: human activated kallikrein enzyme (Homo sapiens, UniProt P03952); assay: Plasma kallikrein inhibition, fluorogenic PFR-AMC substrate, 500 pM activated kallikrein format; format: biochemical; details: 500 pM activated kallikrein, 300 uM PFR-AMC, 30 min preincubation, 10 min reaction; read-out: Primary Dose Response Assay: Average EC50
How it was run: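 Fluorogenic readout (ex 380 / em 460 nm) after 10 min room-temperature reaction with 300 uM Pro-Phe-Arg-AMC substrate, following 30 min preincubation of inhibitors with 500 pM enzyme. Buffer: Tris pH 7.5, EDTA, NaCl, PEG-400, Triton X-100. Values given as EC50 ranges.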

Sequence of human activated kallikrein enzyme (P03952 391-638 limits assumed): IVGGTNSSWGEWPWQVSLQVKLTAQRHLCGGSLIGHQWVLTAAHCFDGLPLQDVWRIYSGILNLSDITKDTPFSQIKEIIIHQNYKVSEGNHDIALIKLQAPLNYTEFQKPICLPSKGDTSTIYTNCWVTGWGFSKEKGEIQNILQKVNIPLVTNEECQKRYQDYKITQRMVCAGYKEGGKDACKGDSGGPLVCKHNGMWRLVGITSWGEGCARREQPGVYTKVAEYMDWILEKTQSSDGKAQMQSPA
Sequence of human activated kallikrein enzyme (P03952 20-390 partner limits assumed): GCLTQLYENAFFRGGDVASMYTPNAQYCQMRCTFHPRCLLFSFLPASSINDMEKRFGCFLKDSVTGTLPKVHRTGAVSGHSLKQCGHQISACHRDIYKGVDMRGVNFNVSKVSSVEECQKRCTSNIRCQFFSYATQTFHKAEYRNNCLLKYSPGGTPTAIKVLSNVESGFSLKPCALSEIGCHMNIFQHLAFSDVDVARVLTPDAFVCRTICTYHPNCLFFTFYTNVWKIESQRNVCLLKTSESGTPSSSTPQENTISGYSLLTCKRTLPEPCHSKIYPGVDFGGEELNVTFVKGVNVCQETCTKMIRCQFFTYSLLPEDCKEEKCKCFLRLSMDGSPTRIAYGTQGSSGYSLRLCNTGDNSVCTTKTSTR

Structure (SMILES)	pEC50
N#Cc1ccc(Cl)cc1[C@@H]1C[C@H]1C(=O)Nc1cc(NCc2cn3cc(C4CC4)ccc3n2)ccn1 (single isomer, unassigned) [Example 83]	7.00 to 8.00
O=C(Nc1cc(NCc2cn3cc(Cl)ccc3n2)ncn1)[C@H]1C[C@@H]1c1cccc(Cl)c1 [Example I-203, (1S,2S)-N-(6-(((6-chloroimidazo[1,2-a]pyridin-2-yl)methyl)amino)pyrimidin-4-yl)-2-(3-chlorophenyl)cyclopropane-1-carboxamide]	7.00 to 8.00
CN(C)C1CCN(c2cc(C3CC3)cn3cc(CNc4cc(NC(=O)[C@H]5C[C@@H]5c5cccc(Cl)c5)ncn4)nc23)C1 (single isomer, unassigned) [Example I-15]	8.00 to 9.00
O=C(Nc1cc(NCc2cn3cc(C4CC4)ccc3n2)ncn1)[C@H]1C[C@@H]1c1cc(Cl)ccc1C(F)(F)F (racemic) [Example 52, rac-(1S*,2S*)-2-(5-chloro-2-(trifluoromethyl)phenyl)-N-(6-(((6-cyclopropylimidazo[1,2-α]pyridin-2-yl)methyl)amino)pyrimidin-4-yl)cyclopropane-1-carboxamide]	6.00 to 7.00
O=C(O)c1nc(NCc2cn3cc(C4CC4)ccc3n2)cc(NC(=O)[C@H]2C[C@@H]2c2cccc(Cl)c2)n1 (racemic) [Example 112, rac-4-((1S*,2S*)-2-(3-chlorophenyl)cyclopropane-1-carboxamido)-6-(((6-cyclopropylimidazo[1,2-a]pyridin-2-yl)methyl)amino)pyrimidine-2-carboxylic acid]	8.00 to 9.00
O=C(Nc1cc(Cc2cn3cc(C4CC4)ccc3n2)ncn1)[C@H]1C[C@@H]1c1cccc(Cl)c1 (racemic) [Example 587, rac-(1S*,2S*)-2-(3-chlorophenyl)-N-(6-((6-cyclopropylimidazo[1,2-a]pyridin-2-yl)methyl)pyrimidin-4-yl)cyclopropane-1-carboxamide]	6.00 to 7.00
O=C(Nc1cc(NCc2cn3cc(C4CC4)ccc3n2)ncn1)[C@@H]1C[C@]12CCc1ccc(Cl)cc12 (racemic) [Example I-183, rac-(1R*,2R*)-6′-chloro-N-(6-(((6-cyclopropylimidazo[1,2-a]pyridin-2-yl)methyl)amino)pyrimidin-4-yl)-2′,3′-dihydrospiro[cyclopropane-1,1′-indene]-2-carboxamide]	7.00 to 8.00
O=C(Nc1cc(NCc2cn3cc(C4CC4)cc(N4CCCC4=O)c3n2)ncn1)[C@H]1C[C@@H]1c1cccc(Cl)c1 (racemic) [Example 58, rac-(1S*,2S*)-2-(3-chlorophenyl)-N-(6-(((6-cyclopropyl-8-(2-oxopyrrolidin-1-yl)imidazo[1,2-α]pyridin-2-yl)methyl)amino)pyrimidin-4-yl)cyclopropane-1-carboxamide]	8.00 to 9.00
O=C(Nc1cn(Cc2cn3cc(C4CC4)ccc3n2)nn1)[C@H]1C[C@@H]1c1cccc(Cl)c1 (racemic) [Example 593, rac-(1S*,2S*)-2-(3-chlorophenyl)-N-(1-((6-cyclopropylimidazo[1,2-a]pyridin-2-yl)methyl)-1H-1,2,3-triazol-4-yl)cyclopropane-1-carboxamide]	< 5.22
O=C(Nc1cc(NCc2cn3cc(C4CC4)ccc3n2)ncn1)[C@H]1C[C@@H]1c1cc(Cl)ccc1C(F)F (racemic) [Example 51, rac-(1S*,2S*)-2-(5-chloro-2-(difluoromethyl)phenyl)-N-(6-(((6-cyclopropylimidazo[1,2-a]pyridin-2-yl)methyl)amino)pyrimidin-4-yl)cyclopropane-1-carboxamide]	7.00 to 8.00
O=C(Nc1cc(NCc2cn3cc(C4CC4)cc(N4C[C@H](O)CC4=O)c3n2)ncn1)[C@H]1C[C@@H]1c1cccc(Cl)c1 (relative stereo) [Example 65, rac-(1S*,2S*)-2-(3-chlorophenyl)-N-(6-(((6-cyclopropyl-8-((R)-4-hydroxy-2-oxopyrrolidin-1-yl)imidazo[1,2-a]pyridin-2-yl)methyl)amino)pyrimidin-4-yl)cyclopropane-1-carboxamide]	8.00 to 9.00
COc1cc([C@H]2C[C@@H]2C(=O)Nc2cc(NCc3cn4cc(C5CC5)ccc4n3)ccn2)cc(N)n1 (racemic) [Example 286, rac-(1S*,2S*)-2-(2-amino-6-methoxypyridin-4-yl)-N-(4-(((6-cyclopropylimidazo[1,2-a]pyridin-2-yl)methyl)amino)pyridin-2-yl)cyclopropane-1-carboxamide]	7.00 to 8.00
CC1CCN(c2cc(C3CC3)cn3cc(CNc4cc(NC(=O)[C@H]5C[C@@H]5c5cccc(Cl)c5)ncn4)nc23)C1=O (relative stereo) [Example 67, rac-(1S*,2S*)-2-(3-chlorophenyl)-N-(6-(((6-cyclopropyl-8-(3-methyl-2-oxopyrrolidin-1-yl)imidazo[1,2-a]pyridin-2-yl)methyl)amino)pyrimidin-4-yl)cyclopropane-1-carboxamide]	8.00 to 9.00
O=C(Nc1nccc(NCc2cn3cc(C4CC4)ccc3n2)n1)[C@H]1C[C@@H]1c1cccc(Cl)c1 (racemic) [Example 346, (rac-(1S*,2S*))-2-(3-chlorophenyl)-N-(4-(((6-cyclopropylimidazo[1,2-a]pyridin-2-yl)methyl)amino)pyrimidin-2-yl)cyclopropane-1-carboxamide]	8.00 to 9.00
O=C(Nc1cc(NCc2cn3cc(C4CC4)ccc3n2)ccn1)[C@H]1[C@H](CO)[C@@H]1c1cccc(Cl)c1 (racemic) [Example I-213, rac-(1R*,2S*,3R*)-2-(3-chlorophenyl)-N-(4-(((6-cyclopropylimidazo[1,2-a]pyridin-2-yl)methyl)amino)pyridin-2-yl)-3-(hydroxymethyl)cyclopropane-1-carboxamide]	8.00 to 9.00

The next lines start with the values.

pEC50	Structure (SMILES)
> 9.00	N#Cc1ccc(Cl)cc1[C@H]1C[C@@H]1C(=O)Nc1cc(NCc2cn3cc(C4CC4)cc(N4CCCC4=O)c3n2)ncn1 (racemic) [Example 334]
> 9.00	Cc1ccnc([C@H]2C[C@@H]2C(=O)Nc2cc(N[C@H](C)c3cn4cc(C(F)F)cc(N5CC(=O)N(C)C5=O)c4n3)ncn2)n1 [Example 417, (1S,2S)-N-(6-(((R)-1-(6-(difluoromethyl)-8-(3-methyl-2,4-dioxoimidazolidin-1-yl)imidazo[1,2-a]pyridin-2-yl)ethyl)amino)pyrimidin-4-yl)-2-(4-methylpyrimidin-2-yl)cyclopropane-1-carboxamide]
> 9.00	CCc1cc(N2CC(=O)N(C)C2=O)c2nc(CNc3cc(NC(=O)[C@H]4C[C@@H]4c4nccc(C)n4)ncn3)cn2c1 [Example 538, (1S,2S)-N-(6-(((6-ethyl-8-(3-methyl-2,4-dioxoimidazolidin-1-yl)imidazo[1,2-a]pyridin-2-yl)methyl)amino)pyrimidin-4-yl)-2-(4-methylpyrimidin-2-yl)cyclopropane-1-carboxamide]
> 9.00	Cc1ccnc([C@H]2C[C@@H]2C(=O)Nc2nccc3nc(Cc4cn5cc(C6CC6)cc(N6CC(=O)N(C)C6=O)c5n4)oc23)n1 [Example 629, (1S,2S)—N-(2-((6-cyclopropyl-8-(3-methyl-2,4-dioxoimidazolidin-1-yl)imidazo[1,2-a]pyridin-2-yl)methyl)oxazolo[5,4-c]pyridin-4-yl)-2-(4-methylpyrimidin-2-yl)cyclopropane-1-carboxamide]
6.00 to 7.00	Cc1ccnc([C@H]2C[C@@H]2C(=O)Nc2cc(NC(C)c3cn4c(N5CC(=O)N(C)C5=O)cc(C5CC5)cc4n3)nc(C)n2)n1 (stereo partly drawn) [Example 362, (1S,2S)-N-(6-((1-(7-cyclopropyl-5-(3-methyl-2,4-dioxoimidazolidin-1-yl)imidazo[1,2-a]pyridin-2-yl)ethyl)amino)-2-methylpyrimidin-4-yl)-2-(4-methylpyrimidin-2-yl)cyclopropane-1-carboxamide]
> 9.00	Cc1ccnc([C@H]2C[C@@H]2C(=O)Nc2cc(N[C@H](C)c3cn4cc(C5CC5)cc(N5CC(=O)NC5=O)c4n3)nc(C)n2)n1 [Example 532, (1S,2S)-N-(6-(((R)-1-(6-cyclopropyl-8-(2,4-dioxoimidazolidin-1-yl)imidazo[1,2-a]pyridin-2-yl)ethyl)amino)-2-methylpyrimidin-4-yl)-2-(4-methylpyrimidin-2-yl)cyclopropane-1-carboxamide]
> 9.00	CCOC(=O)c1cnc(NC(=O)[C@H]2C[C@@H]2c2nccc(C)n2)nc1OCc1cn2cc(C3CC3)cc(N3CC(=O)N(C)C3=O)c2n1 [Example I-654, ethyl 4-((6-cyclopropyl-8-(3-methyl-2,4-dioxoimidazolidin-1-yl)imidazo[1,2-a]pyridin-2-yl)methoxy)-2-((1S,2S)-2-(4-methylpyrimidin-2-yl)cyclopropane-1-carboxamido)pyrimidine-5-carboxylate]
8.00 to 9.00	COc1cc(NC(=O)[C@H]2C[C@@H]2c2nccc(C)n2)nc(OCc2cn3cc(C4CC4)cc(N4CC(=O)N(C)C4=O)c3n2)c1 [Example 38, (1S,2S)-N-(6-((6-cyclopropyl-8-(3-methyl-2,4-dioxoimidazolidin-1-yl)imidazo[1,2-α]pyridin-2-yl)methoxy)-4-methoxypyridin-2-yl)-2-(4-methylpyrimidin-2-yl)cyclopropane-1-carboxamide]
> 9.00	Cc1ccnc([C@H]2C[C@@H]2C(=O)Nc2cc(NCc3cn4cc(C5CC5(F)F)cc(N5CC(=O)N(C)C5=O)c4n3)ncn2)n1 (stereo partly drawn) [Example 535, (1S,2S)-N-(6-(((6-(2,2-difluorocyclopropyl)-8-(3-methyl-2,4-dioxoimidazolidin-1-yl)imidazo[1,2-a]pyridin-2-yl)methyl)amino)pyrimidin-4-yl)-2-(4-methylpyrimidin-2-yl)cyclopropane-1-carboxamide]
7.00 to 8.00	Cc1ccnc([C@H]2C[C@@H]2C(=O)Nc2cc(O[C@@H](C)c3cn4cc(C5CC5)cc(N5CC(=O)N(C)C5=O)c4n3)cnn2)n1 (single isomer, unassigned) [Example 41]

same assay, conditions: comparative compounds, 500 pM activated kallikrein format; read-out: Primary Dose Response Assay: Average EC50

pEC50	Structure (SMILES)
8.00 to 9.00	O=C(Cc1ncn2ccc(Cl)cc12)Nc1cc(NCc2cn3cc(C4CC4)ccc3n2)ncn1
